# Source: article PMC8318231, “Rate-of-Kill (RoK) assays to triage large compound sets for Chagas disease drug discovery: Application to GSK Chagas Box” (PLoS Neglected Tropical Diseases, 2021)
# Columns and labels:
# [1] = tested on: T. cruzi intracellular amastigotes in H9c2 cells; experiment: Rate-of-Kill (RoK) high-content imaging assay, amastigotes per cell (AM/CELL) and curve descriptors; type: cell-based, Trypanosoma cruzi; parameters: key to ME_24h / ME_48h / ME_72h: % reduction in parasite burden (cidal response); t50pct_MCC50 / t50pct_Cmax: unit not given here; details: for AM/CELL NORM: sheet figure 4 A
# In short: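 Readouts at each time point are amastigotes per cell and host nuclei count (cytotoxicity), from DRAQ5 high-content imaging. Infection: trypomastigotes on H9c2 at MOI 8 for 18 h. Dosing was 5 μM single point or 11 points, 1/3 steps from 50 μM. Effect scaled between 4 h infected and uninfected controls.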
# [2] = tested on: T. cruzi Tulahuen trypomastigotes; experiment: T. cruzi trypomastigote assay (Cell Titer-Glo viability, ATP luminescence); type: cell-based, Trypanosoma cruzi; details: for 72 pIC50: 72 h
# In short: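 Compounds were tested in dose response or once at a final 5 μM against 5 × 10^4 trypomastigotes per well (DMEM, 2% FBS), collected on days 5–8 from LLC-MK2 infected cultures. ATP luminescence via CellTiter-Glo reports live parasites; DMSO defines 0% and cell-free wells 100% effect.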
# TcCYP51 = details: formerly reported; cited from earlier work
compound,measurement,setting,value
CC(=O)Nc1nc(-c2cc(C)ccc2C)c(C)s1 [TCMDC-143207],ME_24h,"[1]; 24h, figure 5",9.377
same,ME_48h,"[1]; 48h, figure 5",15.7339
same,ME_72h,"[1]; 72h, figure 5",56.2605
same,MCC50,[1]; RoK curve descriptor,5.6 µM
same,MCCE,[1]; RoK curve descriptor,0.2 µM
same,AM/CELL NORM,[1]; Time 4,-2.089
same,AM/CELL NORM,[1]; Time 24,9.377
same,AM/CELL NORM,[1]; Time 48,6.875
same,AM/CELL NORM,[1]; Time 72,36.4934
same,tlag_Cmax,[1]; at Cmax,4.0 h
same,t50pct_Cmax,"[1]; at Cmax, figure 5",72
same,tlag_Cmax,"[1]; at Cmax, figure 5",4
same,t50%_MCC50,[1]; at MCC50,72.0 h
same,tlag_MCC50,[1]; at MCC50,4.0 h
same,t50pct_MCC50,"[1]; at MCC50, figure 5",72
same,tlag_MCC50,"[1]; at MCC50, figure 5",4
same,MCCE,[1]; figure 5,0.2058
same,MCC50,"[1]; figure 5, in µM",5.556
same,ME_24h (%),"[1]; maximum effect at 24 h, RoK assay",9.4%
same,ME_48h (%),"[1]; maximum effect at 48 h, RoK assay",15.7%
same,ME_72h (%),"[1]; maximum effect at 72 h, RoK assay",56.3%
same,"ME 24h (maximum effect at 24 hours, intracellular amastigotes)","[1]; maximum percentage of parasite burden reduction reached by any concentration, 24 hours",9.377%
same,Trypomastigotes pIC50 48 hours,"[2]; 48 hours incubation, pIC50 = -log10 IC50 in molar units",< 4.3
same,Trypomastigotes pIC50 72 hours,"[2]; 72 hours incubation, pIC50 = -log10 IC50 in molar units",< 4.3
same,"72 pIC50 (trypomastigotes, raw data of Fig 1D)","[2]; 72 hours, plotted values, censored values given without sign",< 4.3
same,48 pIC50,"[2]; trypomastigote assay, 48 h, figure 1A",< 4.3
same,72 pIC50,"[2]; trypomastigote assay, figure 1A",< 4.3
same,72 pIC50,"[2]; trypomastigote assay, figure 1B",< 4.3
same,CYP51 pIC50,TcCYP51,< 4
